Key:
Assay in all cases: BIO3-BIO1 mutant enzyme activity in the presence of herbicide, percentage inhibition (fluorometric DAPA assay)
Format in all cases: biochemical
Conditions in all cases: read-out: percentage inhibition
[1] = molecular target: T1, Arabidopsis thaliana BIO3-BIO1 (BioDA) mutants (Arabidopsis thaliana, UniProt B0F481, Y511V)
T1 construct: with the predicted N-terminal mitochondrial transit peptide removed; 6xHis-tag (N); thrombin cleavage site (N); made in house; host or cells: E. coli BL21 (DE3) bioA
T1 sequence (B0F481 23-833 Y511V): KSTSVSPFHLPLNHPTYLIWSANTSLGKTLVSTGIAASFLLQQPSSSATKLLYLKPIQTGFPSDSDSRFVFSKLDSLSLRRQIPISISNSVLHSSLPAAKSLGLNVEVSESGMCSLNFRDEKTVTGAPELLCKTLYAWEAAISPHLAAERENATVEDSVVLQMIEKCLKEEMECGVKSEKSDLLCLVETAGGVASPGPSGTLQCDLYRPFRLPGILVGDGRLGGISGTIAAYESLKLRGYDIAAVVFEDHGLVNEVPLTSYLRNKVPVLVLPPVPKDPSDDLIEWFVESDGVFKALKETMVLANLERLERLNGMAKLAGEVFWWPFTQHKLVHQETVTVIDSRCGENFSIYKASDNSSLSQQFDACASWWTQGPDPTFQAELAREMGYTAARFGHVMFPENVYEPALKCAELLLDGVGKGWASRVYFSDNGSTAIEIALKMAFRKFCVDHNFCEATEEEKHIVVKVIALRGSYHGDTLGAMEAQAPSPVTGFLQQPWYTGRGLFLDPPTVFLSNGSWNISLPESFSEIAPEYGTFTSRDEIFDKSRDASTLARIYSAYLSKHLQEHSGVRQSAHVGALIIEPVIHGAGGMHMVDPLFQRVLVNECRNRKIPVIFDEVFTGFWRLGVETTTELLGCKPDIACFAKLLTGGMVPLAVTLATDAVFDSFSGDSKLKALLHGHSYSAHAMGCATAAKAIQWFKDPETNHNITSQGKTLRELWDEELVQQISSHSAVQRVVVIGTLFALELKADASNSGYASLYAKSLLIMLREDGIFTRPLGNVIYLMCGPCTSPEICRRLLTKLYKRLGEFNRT
Excerpt: (§1) A pet-24 plasmid containing a DNA sequence encoding each identified variant mutant of BIO3-BIO1 derived from Arabidopsis thaliana from example 5 above, as shown in Table 13 below and as shown in full in SEQ ID NOs: 15 to 155, codon-optimised for expression in E. coli, with an N-terminal 6×His-tag and thrombin cleavage site and under control of a T7 promoter, and was synthesised by Twist Bioscience, in a similar manner to SEQ ID NO:311. These plasmids were then expressed in E. coli BL21 (DE3) bioA with 50 μg/mL kanamycin and 25 μg/mL chloramphenicol selection. Overnight cultures grown at 37° C. were used to inoculate 8×500 mL AIM in shake flasks at a ratio of 1:100. Cultures were grown at 37° C., 200 rpm for 3.5 hours and then overnight at 20° C. Cells were harvested by centrifugation for 30 minutes at 10 000 g. Cells were stored at −80° C. until extraction. 30 g of cell pellet from was thawed in 120 mL of IMAC buffer A (20 mM HEPES pH7.5, 25 mM imidazole, 500 mM sodium chloride, 0.15 mM pyridoxal phosphate, 0.5 mM TCEP, 1× complete Protease Inhibitor Tablet (Roche)). The resuspension was passed through a cell disrupter at 18 000 PSI and centrifuged at 50 000 g for 25 minutes at 4° C. The His-tagged BIO3-BIO1 protein was purified from the extract supernatant on an AKTA avant chromatography system (Cytiva) using a HisTrap FF column and eluted in IMAC buffer B ((20 mM HEPES pH7.5, 500 mM imidazole, 500 mM sodium chloride, 0.15 mM pyridoxal phosphate, 0.5 mM TCEP) followed by SEC using a HiLoad 26/60 Superdex200 column in SEC buffer (25 mM HEPES pH7.5, 150 mM sodium chloride, 0.15 mM pyridoxal phosphate, 0.5 mM TCEP). Protein concentration was measured and calculated using the absorbance at 280 nm. Extracts were diluted 1 in 4 and 10 uL was analysed by SDS PAGE.
(§2) To measure BIO3-BIO1 mutant enzyme activity in the presence of herbicide, herbicides were incubated with 20 μL of enzyme mix (100 mM EPPS pH 8.6, 0.1 mM pyridoxal phosphate, 0.1 mg/mL BSA, 50 nM BIO3-BIO1 enzyme) for 10 minutes at 20° C. in a well of a 96-well half-area black plate, followed by the addition of 20 μL of substrate mix (final concentration of 100 mM EPPS pH 8.6, 0.1 mM pyridoxal phosphate, 0.1 mg/mL BSA, 100 μM spermidine, 20 μM KAPA, 100 mM NaCO3) and further incubation for 75 minutes at 20° C. The reaction was terminated by the addition of 50 μL of derivatisation mix (final concentration of 250 mM borate NaOH pH 9.4, 3.6 mM o-phthalaldehyde, 7 mM β-mercaptoethanol, 17% (v/v) ethanol, 3.6% (v/v) methanol). The fluorescent product produced by the reaction of DAPA with o-phthalaldehyde and 7 mM β-mercaptoethanol was measured at 470 nm after excitation at 410 nm. The percentage inhibition was calculated as the activity in the presence of one of three concentrations of each herbicide compound A to M (note that the compounds labelled as A to M are identified hereinabove in the relevant section of the description) as a percentage of the activity in DMSO (Table 12 and 13). The percentage activity versus WT was also calculated and is shown in Table 13 and 14 (NT indicates mutation not tested in table 13, note that these mutations are tested at different compound concentrations for compounds L, M and C, and the results are shown in table 14).

[2] = molecular target: T2, Arabidopsis thaliana BIO3-BIO1 (BioDA) mutants (Arabidopsis thaliana, UniProt B0F481, G513L)
T2 construct: with the predicted N-terminal mitochondrial transit peptide removed; 6xHis-tag (N); thrombin cleavage site (N); made in house; host or cells: E. coli BL21 (DE3) bioA
T2 sequence (B0F481 23-833 G513L): as the sequence (B0F481 23-833 Y511V) above, with V489Y, G491L counted along it
Excerpt: as §1, §2

[3] = molecular target: T3, Arabidopsis thaliana BIO3-BIO1 (BioDA) mutants (Arabidopsis thaliana, UniProt B0F481, S509V)
T3 construct: with the predicted N-terminal mitochondrial transit peptide removed; 6xHis-tag (N); thrombin cleavage site (N); made in house; host or cells: E. coli BL21 (DE3) bioA
T3 sequence (B0F481 23-833 S509V): as the sequence (B0F481 23-833 Y511V) above, with S487V, V489Y counted along it
Excerpt: as §1, §2

[4] = molecular target: T4, Arabidopsis thaliana BIO3-BIO1 (BioDA) mutants (Arabidopsis thaliana, UniProt B0F481, T512I)
T4 construct: with the predicted N-terminal mitochondrial transit peptide removed; 6xHis-tag (N); thrombin cleavage site (N); made in house; host or cells: E. coli BL21 (DE3) bioA
T4 sequence (B0F481 23-833 T512I): as the sequence (B0F481 23-833 Y511V) above, with V489Y, T490I counted along it
Excerpt: as §1, §2

[5] = molecular target: T5, Arabidopsis thaliana BIO3-BIO1 (BioDA) mutants (Arabidopsis thaliana, UniProt B0F481, P508T)
T5 construct: with the predicted N-terminal mitochondrial transit peptide removed; 6xHis-tag (N); thrombin cleavage site (N); made in house; host or cells: E. coli BL21 (DE3) bioA
T5 sequence (B0F481 23-833 P508T): as the sequence (B0F481 23-833 Y511V) above, with P486T, V489Y counted along it
Excerpt: as §1, §2

[6] = molecular target: T6, Arabidopsis thaliana BIO3-BIO1 (BioDA) mutants (Arabidopsis thaliana, UniProt B0F481, G700S)
T6 construct: with the predicted N-terminal mitochondrial transit peptide removed; 6xHis-tag (N); thrombin cleavage site (N); made in house; host or cells: E. coli BL21 (DE3) bioA
T6 sequence (B0F481 23-833 G700S): as the sequence (B0F481 23-833 Y511V) above, with V489Y, G678S counted along it
Excerpt: as §1, §2

[7] = molecular target: T7, Arabidopsis thaliana BIO3-BIO1 (BioDA) mutants (Arabidopsis thaliana, UniProt B0F481, S509G)
T7 construct: with the predicted N-terminal mitochondrial transit peptide removed; 6xHis-tag (N); thrombin cleavage site (N); made in house; host or cells: E. coli BL21 (DE3) bioA
T7 sequence (B0F481 23-833 S509G): as the sequence (B0F481 23-833 Y511V) above, with S487G, V489Y counted along it
Excerpt: as §1, §2

[8] = molecular target: T8, Arabidopsis thaliana BIO3-BIO1 (BioDA) mutants (Arabidopsis thaliana, UniProt B0F481, T512R)
T8 construct: with the predicted N-terminal mitochondrial transit peptide removed; 6xHis-tag (N); thrombin cleavage site (N); made in house; host or cells: E. coli BL21 (DE3) bioA
T8 sequence (B0F481 23-833 T512R): as the sequence (B0F481 23-833 Y511V) above, with V489Y, T490R counted along it
Excerpt: as §1, §2

[9] = molecular target: T9, Arabidopsis thaliana BIO3-BIO1 (BioDA) mutants (Arabidopsis thaliana, UniProt B0F481, Y511E)
T9 construct: with the predicted N-terminal mitochondrial transit peptide removed; 6xHis-tag (N); thrombin cleavage site (N); made in house; host or cells: E. coli BL21 (DE3) bioA
T9 sequence (B0F481 23-833 Y511E): as the sequence (B0F481 23-833 Y511V) above, with V489E counted along it
Excerpt: as §1, §2

[10] = molecular target: T10, Arabidopsis thaliana BIO3-BIO1 (BioDA) mutants (Arabidopsis thaliana, UniProt B0F481, Q517I)
T10 construct: with the predicted N-terminal mitochondrial transit peptide removed; 6xHis-tag (N); thrombin cleavage site (N); made in house; host or cells: E. coli BL21 (DE3) bioA
T10 sequence (B0F481 23-833 Q517I): as the sequence (B0F481 23-833 Y511V) above, with V489Y, Q495I counted along it
Excerpt: as §1, §2

[11] = molecular target: T11, Arabidopsis thaliana BIO3-BIO1 (BioDA) mutants (Arabidopsis thaliana, UniProt B0F481, P421G)
T11 construct: with the predicted N-terminal mitochondrial transit peptide removed; 6xHis-tag (N); thrombin cleavage site (N); made in house; host or cells: E. coli BL21 (DE3) bioA
T11 sequence (B0F481 23-833 P421G): as the sequence (B0F481 23-833 Y511V) above, with P399G, V489Y counted along it
Excerpt: as §1, §2

[12] = molecular target: T12, Arabidopsis thaliana BIO3-BIO1 (BioDA) mutants (Arabidopsis thaliana, UniProt B0F481, S509F)
T12 construct: with the predicted N-terminal mitochondrial transit peptide removed; 6xHis-tag (N); thrombin cleavage site (N); made in house; host or cells: E. coli BL21 (DE3) bioA
T12 sequence (B0F481 23-833 S509F): as the sequence (B0F481 23-833 Y511V) above, with S487F, V489Y counted along it
Excerpt: as §1, §2

CCn1c(-c2ccc(Cl)c(Cl)c2)c(C(=O)O)c(=O)c2cc(F)ccc21 [Compound M, 2-(3,4-dichlorophenyl)-1-ethyl-6-fluoro-4-oxo-quinoline-3-carboxylic acid]
inhibition at 0.2 µM [1]: 33%
inhibition at 1 µM [1]: 88%
inhibition at 5 µM [1]: 99%
inhibition at 0.2 µM [2]: 54%
inhibition at 1 µM [2]: 85%
inhibition at 5 µM [2]: 97%
inhibition at 0.2 µM [3]: 22%
inhibition at 1 µM [3]: 26%
inhibition at 5 µM [3]: 88%
inhibition at 0.2 µM [4]: 48%
inhibition at 1 µM [4]: 85%
inhibition at 5 µM [4]: 96%
inhibition at 0.2 µM [5]: 20%
inhibition at 1 µM [5]: 44%
inhibition at 5 µM [5]: 78%
inhibition at 0.2 µM [6]: 8%
inhibition at 1 µM [6]: 0%
inhibition at 5 µM [6]: 9%
inhibition at 0.2 µM [7]: 28%
inhibition at 1 µM [7]: 47%
inhibition at 5 µM [7]: 71%
inhibition at 0.2 µM [8]: 81%
inhibition at 1 µM [8]: 95%
inhibition at 5 µM [8]: 99%
inhibition at 0.2 µM [9]: 29%
inhibition at 1 µM [9]: 74%
inhibition at 5 µM [9]: 95%
inhibition at 0.2 µM [10]: 19%
inhibition at 1 µM [10]: 44%
inhibition at 5 µM [10]: 72%
inhibition at 0.2 µM [11]: 19%
inhibition at 1 µM [11]: 39%
inhibition at 5 µM [11]: 75%
inhibition at 0.2 µM [12]: 19%
inhibition at 1 µM [12]: 58%
inhibition at 5 µM [12]: 89%

CCn1c(C)c(-c2ccc(F)cc2F)c(=O)c(C(=O)O)c1-c1ccc(Cl)c(Cl)c1 [Compound C, 2-(3,4-dichlorophenyl)-5-(2,4-difluorophenyl)-1-ethyl-6-methyl-4-oxo-pyridine-3-carboxylic acid]
inhibition at 0.2 µM [1]: 28%
inhibition at 1 µM [1]: 94%
inhibition at 5 µM [1]: 97%
inhibition at 0.2 µM [2]: 69%
inhibition at 1 µM [2]: 92%
inhibition at 5 µM [2]: 98%
inhibition at 0.2 µM [3]: 17%
inhibition at 1 µM [3]: 30%
inhibition at 5 µM [3]: 94%
inhibition at 0.2 µM [4]: 60%
inhibition at 1 µM [4]: 96%
inhibition at 5 µM [4]: 99%
inhibition at 0.2 µM [5]: 23%
inhibition at 1 µM [5]: 54%
inhibition at 5 µM [5]: 82%
inhibition at 0.2 µM [6]: 9%
inhibition at 1 µM [6]: 0%
inhibition at 5 µM [6]: 9%
inhibition at 0.2 µM [7]: 20%
inhibition at 1 µM [7]: 53%
inhibition at 5 µM [7]: 75%
inhibition at 0.2 µM [8]: 74%
inhibition at 1 µM [8]: 95%
inhibition at 5 µM [8]: 99%
inhibition at 0.2 µM [9]: 27%
inhibition at 1 µM [9]: 74%
inhibition at 5 µM [9]: 96%
inhibition at 0.2 µM [10]: 25%
inhibition at 1 µM [10]: 58%
inhibition at 5 µM [10]: 82%
inhibition at 0.2 µM [11]: 11%
inhibition at 1 µM [11]: 35%
inhibition at 5 µM [11]: 80%
inhibition at 0.2 µM [12]: 24%
inhibition at 1 µM [12]: 82%
inhibition at 5 µM [12]: 98%

CCOC(=O)c1nn(-c2ccc3c(c2)OC(F)(F)C(F)(F)O3)c2cccc(C(C)=O)c2c1=O [Compound A, ethyl 5-acetyl-4-oxo-1-(2,2,3,3-tetrafluoro-1,4-benzodioxin-6-yl)cinnoline-3-carboxylate]
inhibition at 1 µM [1]: 45%
inhibition at 1 µM [2]: 89%
inhibition at 1 µM [3]: 6%
inhibition at 1 µM [4]: 37%
inhibition at 1 µM [5]: 55%
inhibition at 1 µM [6]: 0%
inhibition at 1 µM [7]: 36%
inhibition at 1 µM [8]: 82%
inhibition at 1 µM [9]: 0%
inhibition at 1 µM [10]: 28%
inhibition at 1 µM [11]: 30%
inhibition at 1 µM [12]: 6%

CCn1c(Cn2ccc(C(F)(F)F)n2)cc(=O)c(C(=O)O)c1-c1ccc(Cl)c(Cl)c1 [Compound L, 2-(3,4-dichlorophenyl)-1-ethyl-4-oxo-6-[[3-(trifluoromethyl)pyrazol-1-yl]methyl]pyridine-3-carboxylic acid]
inhibition at 0.01 µM [2]: 58%
inhibition at 0.075 µM [2]: 88%
inhibition at 0.5 µM [2]: 97%
inhibition at 0.01 µM [5]: 25%
inhibition at 0.075 µM [5]: 22%
inhibition at 0.5 µM [5]: 85%
inhibition at 0.01 µM [6]: 9%
inhibition at 0.075 µM [6]: 3%
inhibition at 0.5 µM [6]: 3%
inhibition at 0.01 µM [11]: 9%
inhibition at 0.075 µM [11]: 11%
inhibition at 0.5 µM [11]: 85%
